Results as given in ChEMBL document CHEMBL5712083, “Regulation of Epstein-Barr Virus Life Cycle and Cell Proliferation by Histone H3K27 Methyltransferase EZH2 in Akata Cells” (mSphere, 2018).
Calls of active or inactive are those of the source. The rule behind the calls is not given here.

Key:
Type in all cases: cell-based
[1] = molecular target: Histone-lysine N-methyltransferase EZH2 (Homo sapiens) (UniProt Q15910); assay: Inhibition of EZH2 in human EBV-positive Akata cells assessed as increase in lytic gene LMP1 at 1 uM after 3 days by qRT-PCR analysis relative control; details: time 3.0 day
Sequence of Histone-lysine N-methyltransferase EZH2 (Homo sapiens) (Q15910 whole entry, looked up): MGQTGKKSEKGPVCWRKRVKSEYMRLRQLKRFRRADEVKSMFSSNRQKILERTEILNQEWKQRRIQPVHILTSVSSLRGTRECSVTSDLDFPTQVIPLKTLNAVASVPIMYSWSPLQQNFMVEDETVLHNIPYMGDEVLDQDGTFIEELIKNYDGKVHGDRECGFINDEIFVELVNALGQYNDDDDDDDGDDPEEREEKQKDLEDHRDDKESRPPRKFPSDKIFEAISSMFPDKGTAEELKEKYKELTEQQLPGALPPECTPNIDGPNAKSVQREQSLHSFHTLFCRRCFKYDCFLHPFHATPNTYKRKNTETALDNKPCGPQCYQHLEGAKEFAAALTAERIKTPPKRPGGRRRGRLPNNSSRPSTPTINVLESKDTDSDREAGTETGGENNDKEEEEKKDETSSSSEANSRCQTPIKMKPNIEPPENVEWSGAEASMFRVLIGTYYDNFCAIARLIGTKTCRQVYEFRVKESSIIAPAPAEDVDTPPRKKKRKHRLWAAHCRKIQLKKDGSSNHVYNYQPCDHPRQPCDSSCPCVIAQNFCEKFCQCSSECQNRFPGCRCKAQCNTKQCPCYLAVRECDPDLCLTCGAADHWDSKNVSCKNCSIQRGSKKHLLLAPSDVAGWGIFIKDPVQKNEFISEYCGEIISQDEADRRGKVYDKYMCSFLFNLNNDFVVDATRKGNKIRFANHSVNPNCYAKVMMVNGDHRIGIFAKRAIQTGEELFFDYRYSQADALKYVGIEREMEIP

[2] = molecular target: Histone-lysine N-methyltransferase EZH2 (Homo sapiens) (UniProt Q15910); assay: Inhibition of EZH2 in human EBV-positive Akata cells assessed as effect on lytic gene BARTs at 1 uM after 3 days by qRT-PCR analysis; details: time 3.0 day
[3] = molecular target: Histone-lysine N-methyltransferase EZH2 (Homo sapiens) (UniProt Q15910); assay: Inhibition of EZH2 (unknown origin) in Lymphoblastoid cells assessed as effect on lytic gene EBER1 at 1 uM for 3 days followed by addition of TPA, A23187 and sodium butyrate for lytic induction for 2 days by qRT-PCR analysis; details: Lymphoblastoid cell, time 5.0 day
[4] = molecular target: Histone-lysine N-methyltransferase EZH2 (Homo sapiens) (UniProt Q15910); assay: Inhibition of EZH2 in human EBV-positive Akata cells assessed as reduction in H3K27me3 levels at 1 uM after 3 days by Western blot analysis; details: time 3.0 day
[5] = molecular target: Histone-lysine N-methyltransferase EZH2 (Homo sapiens) (UniProt Q15910); assay: Inhibition of EZH2 (unknown origin) in Lymphoblastoid cells assessed as effect on lytic gene gp350/200 at 1 uM for 3 days followed by addition of TPA, A23187 and sodium butyrate for lytic induction for 2 days by qRT-PCR analysis; details: Lymphoblastoid cell, time 5.0 day
[6] = molecular target: Histone-lysine N-methyltransferase EZH2 (Homo sapiens) (UniProt Q15910); assay: Inhibition of EZH2 (unknown origin) in Lymphoblastoid cells assessed as effect on lytic gene EBNA2 at 1 uM for 3 days followed by addition of TPA, A23187 and sodium butyrate for lytic induction for 2 days by qRT-PCR analysis; details: Lymphoblastoid cell, time 5.0 day
[7] = molecular target: Histone-lysine N-methyltransferase EZH2 (Homo sapiens) (UniProt Q15910); assay: Inhibition of EZH2 (unknown origin) in Lymphoblastoid cells assessed as effect on lytic gene EBNA1 at 1 uM for 3 days followed by addition of TPA, A23187 and sodium butyrate for lytic induction for 2 days by qRT-PCR analysis; details: Lymphoblastoid cell, time 5.0 day
[8] = molecular target: Histone-lysine N-methyltransferase EZH2 (Homo sapiens) (UniProt Q15910); assay: Inhibition of EZH2 (unknown origin) in Lymphoblastoid cells assessed as reduction in H3K27me3 levels at 1 uM after 3 days by CHIP assay; details: Lymphoblastoid cell, time 3.0 day
[9] = molecular target: Histone-lysine N-methyltransferase EZH2 (Homo sapiens) (UniProt Q15910); assay: Inhibition of EZH2 in human EBV-positive Akata cells assessed as effect on cell viability at 1 uM
[10] = molecular target: Histone-lysine N-methyltransferase EZH2 (Homo sapiens) (UniProt Q15910); assay: Inhibition of EZH2 in human EBV-positive Akata cells assessed as effect on lytic gene gp350/200 at 1 uM for 3 days followed by addition of ant-IgG for lytic induction for 2 days by qRT-PCR analysis; details: time 5.0 day
[11] = molecular target: Histone-lysine N-methyltransferase EZH2 (Homo sapiens) (UniProt Q15910); assay: Inhibition of EZH2 in human EBV-positive Akata cells assessed as effect on lytic gene EBNA2 at 1 uM after 3 days by qRT-PCR analysis; details: time 3.0 day
[12] = molecular target: Histone-lysine N-methyltransferase EZH2 (Homo sapiens) (UniProt Q15910); assay: Inhibition of EZH2 in human EBV-positive Akata cells assessed as effect on lytic gene EBNA1 at 1 uM for 3 days followed by addition of ant-IgG for lytic induction for 2 days by qRT-PCR analysis; details: time 5.0 day
[13] = molecular target: Histone-lysine N-methyltransferase EZH2 (Homo sapiens) (UniProt Q15910); assay: Inhibition of EZH2 in human EBV-positive Akata cells assessed as effect on lytic gene EBNA1 at 1 uM after 3 days by qRT-PCR analysis; details: time 3.0 day
[14] = molecular target: Histone-lysine N-methyltransferase EZH2 (Homo sapiens) (UniProt Q15910); assay: Inhibition of EZH2 (unknown origin) in Lymphoblastoid cells assessed as effect on lytic gene BZLF1 at 1 uM for 3 days followed by addition of TPA, A23187 and sodium butyrate for lytic induction for 2 days by qRT-PCR analysis; details: Lymphoblastoid cell, time 5.0 day
[15] = molecular target: Histone-lysine N-methyltransferase EZH2 (Homo sapiens) (UniProt Q15910); assay: Inhibition of EZH2 (unknown origin) in Lymphoblastoid cells assessed as effect on lytic gene LMP2 at 1 uM for 3 days followed by addition of TPA, A23187 and sodium butyrate for lytic induction for 2 days by qRT-PCR analysis; details: Lymphoblastoid cell, time 5.0 day
[16] = molecular target: Histone-lysine N-methyltransferase EZH2 (Homo sapiens) (UniProt Q15910); assay: Inhibition of EZH2 (unknown origin) in Lymphoblastoid cells assessed as reduction in H3K27me3 levels at 1 uM after 3 days by Western blot analysis; details: Lymphoblastoid cell, time 3.0 day
[17] = molecular target: Histone-lysine N-methyltransferase EZH2 (Homo sapiens) (UniProt Q15910); assay: Inhibition of EZH2 in human EBV-positive Akata cells assessed as effect on lytic gene LMP2 at 1 uM for 3 days followed by addition of ant-IgG for lytic induction for 2 days by qRT-PCR analysis; details: time 5.0 day
[18] = molecular target: Histone-lysine N-methyltransferase EZH2 (Homo sapiens) (UniProt Q15910); assay: Inhibition of EZH2 in human EBV-positive Akata cells assessed as effect on lytic gene BZLF1 at 1 uM after 3 days by qRT-PCR analysis; details: time 3.0 day
[19] = molecular target: Histone-lysine N-methyltransferase EZH2 (Homo sapiens) (UniProt Q15910); assay: Inhibition of EZH2 in human EBV-positive Akata cells assessed as effect on lytic gene BARTs at 1 uM for 3 days followed by addition of ant-IgG for lytic induction for 2 days by qRT-PCR analysis; details: time 5.0 day
[20] = molecular target: Histone-lysine N-methyltransferase EZH2 (Homo sapiens) (UniProt Q15910); assay: Inhibition of EZH2 in human EBV-positive Akata cells assessed as reduction in H3K27me3 levels at 1 uM after 3 days by CHIP assay; details: time 3.0 day
[21] = molecular target: Histone-lysine N-methyltransferase EZH2 (Homo sapiens) (UniProt Q15910); assay: Inhibition of EZH2 in human EBV-positive Akata cells assessed as effect on lytic gene gp350/200 at 1 uM after 3 days by qRT-PCR analysis; details: time 3.0 day
[22] = molecular target: Histone-lysine N-methyltransferase EZH2 (Homo sapiens) (UniProt Q15910); assay: Inhibition of EZH2 in human EBV-positive Akata cells assessed as effect on lytic gene LMP2 at 1 uM after 3 days by qRT-PCR analysis; details: time 3.0 day
[23] = molecular target: Histone-lysine N-methyltransferase EZH2 (Homo sapiens) (UniProt Q15910); assay: Inhibition of EZH2 (unknown origin) in Lymphoblastoid cells assessed as effect on lytic gene BARTs at 1 uM for 3 days followed by addition of TPA, A23187 and sodium butyrate for lytic induction for 2 days by qRT-PCR analysis; details: Lymphoblastoid cell, time 5.0 day
[24] = molecular target: Histone-lysine N-methyltransferase EZH2 (Homo sapiens) (UniProt Q15910); assay: Inhibition of EZH2 in human EBV-positive Akata cells assessed as effect on lytic gene EBNA2 at 1 uM for 3 days followed by addition of ant-IgG for lytic induction for 2 days by qRT-PCR analysis; details: time 5.0 day
[25] = molecular target: Histone-lysine N-methyltransferase EZH2 (Homo sapiens) (UniProt Q15910); assay: Inhibition of EZH2 in human EBV-positive Akata cells assessed as increase in lytic gene LMP1 at 1 uM for 3 days followed by addition of ant-IgG for lytic induction for 2 days by qRT-PCR analysis relative to control; details: time 5.0 day
[26] = molecular target: Histone-lysine N-methyltransferase EZH2 (Homo sapiens) (UniProt Q15910); assay: Inhibition of EZH2 (unknown origin) in Lymphoblastoid cells assessed as effect on lytic gene LMP1 at 1 uM for 3 days followed by addition of TPA, A23187 and sodium butyrate for lytic induction for 2 days by qRT-PCR analysis relative to control; details: Lymphoblastoid cell, time 5.0 day
[27] = molecular target: Histone-lysine N-methyltransferase EZH2 (Homo sapiens) (UniProt Q15910); assay: Inhibition of EZH2 in human EBV-positive Akata cells assessed as effect on lytic gene BZLF1 at 1 uM for 3 days followed by addition of ant-IgG for lytic induction for 2 days by qRT-PCR analysis; details: time 5.0 day
[28] = molecular target: Histone-lysine N-methyltransferase EZH2 (Homo sapiens) (UniProt Q15910); assay: Inhibition of EZH2 in human EBV-positive Akata cells assessed as effect on lytic gene EBER1 at 1 uM after 3 days by qRT-PCR analysis; details: time 3.0 day
[29] = molecular target: Histone-lysine N-methyltransferase EZH2 (Homo sapiens) (UniProt Q15910); assay: Inhibition of EZH2 in human EBV-positive Akata cells assessed as effect on lytic gene EBER1 at 1 uM for 3 days followed by addition of ant-IgG for lytic induction for 2 days by qRT-PCR analysis; details: time 5.0 day

Question: Which fold change (FC) [1] does the source give for CCCc1cc(C)[nH]c(=O)c1CNC(=O)c1cc(-c2ccnc(N3CCN(C)CC3)c2)cc2c1cnn2C(C)C here?
Answer: 2.6

Question: What about the inhibition [2] of the same molecule?
Answer: inactive

Question: And the inhibition [3]?
Answer: inactive

Question: And the inhibition [4]?
Answer: Active

Question: What about the inhibition [5] of the same molecule?
Answer: inactive

Question: And the inhibition [6]?
Answer: inactive

Question: And the inhibition [7]?
Answer: inactive

Question: And the inhibition [8]?
Answer: Active

Question: What about the inhibition [9] of the same molecule?
Answer: inactive

Question: And the inhibition [10]?
Answer: inactive

Question: And the inhibition [11]?
Answer: inactive

Question: What about the inhibition [12] of the same molecule?
Answer: inactive

Question: What about the inhibition [13] of the same molecule?
Answer: inactive

Question: What about the inhibition [14] of the same molecule?
Answer: inactive

Question: And the inhibition [15]?
Answer: inactive

Question: What about the inhibition [16] of the same molecule?
Answer: Active

Question: What about the inhibition [17] of the same molecule?
Answer: inactive

Question: And the inhibition [18]?
Answer: inactive

Question: And the inhibition [19]?
Answer: inactive

Question: What about the inhibition [20] of the same molecule?
Answer: Active

Question: And the inhibition [21]?
Answer: inactive

Question: What about the inhibition [22] of the same molecule?
Answer: inactive

Question: What about the inhibition [23] of the same molecule?
Answer: inactive

Question: What about the inhibition [24] of the same molecule?
Answer: inactive

Question: And the fold change (FC) [25]?
Answer: 6.7

Question: And the fold change (FC) [26]?
Answer: 8.3

Question: What about the inhibition [27] of the same molecule?
Answer: inactive

Question: And the inhibition [28]?
Answer: inactive

Question: And the inhibition [29]?
Answer: inactive
